Measured values: patent US20150119363A1, “METHODS OF TREATING BACTERIAL INFECTIONS” (Rampex Pharmaceuticals, Inc., priority 2012, published 2015)

Legend:
Assay type in all cases: cell-based
[1] = test system: Enterobacter cloacae ECL1058 (KPC-3, SHV-11, TEM-1); experiment: Checkerboard assay, Compound 5 with biapenem; settings: ECL1058
Excerpt: (§1) The potentiation effect is observed by the reduction of the minimum inhibitory concentration of β-lactam antibiotics in the presence of β-lactamase inhibitors (BLIs). […] Methods for Dilution of Antimicrobial Susceptibility Tests for Bacteria That Grow Aerobically—Eighth Edition; Approved Standard. CLSI Document M07-A8, 2009). In this assay, multiple dilutions of two drugs, namely BLI and β-lactam (biapenem), are being tested, alone and in combination, at concentrations equal to, above and below their respective minimal inhibitory concentrations (MICs). BLIs are solubilized in 10% DMSO at 10 mg/mL. Stock solutions are further diluted, according to the needs of a particular assay, in Mueller Hinton Broth (MHB). Stock solution can be stored at −80° C.
(§2) The checkerboard (CB) assay is performed in microtiter plates. Biapenem is diluted in the x axis, each column containing a single concentration of antibiotic. BLIs are diluted in the y axis, each row containing an equal concentration of BLI. The result of these manipulations is that each well of the microtiter plate contains a unique combination of concentrations of the two agents. The assay is performed in MHB with a final bacterial inoculum of 5×10^5 CFU/mL (from an early-log phase culture). Microtiter plates are incubated during 20 h at 35° C. and are read using a microtiter plate reader (Molecular Devices) at 650 nm as well as visual observation using a microtiter plate reading mirror.

[2] = test system: Enterobacter cloacae ECL1059 (KPC-3, SHV-12, TEM-1); experiment: Checkerboard assay, Compound 5 with biapenem; settings: ECL1059
Excerpt: as §1, §2

[3] = test system: Escherichia coli EC1007 (KPC-3); experiment: Checkerboard assay, Compound 5 with biapenem; settings: EC1007
Excerpt: as §1, §2

[4] = test system: Klebsiella oxytoca KX1017 (KPC-2, OXA-2, SHV-30); experiment: Checkerboard assay, Compound 5 with biapenem; settings: KX1017
Excerpt: as §1, §2

[5] = test system: Klebsiella oxytoca KX1018 (KPC-2, SHV-40, OXY-1); experiment: Checkerboard assay, Compound 5 with biapenem; settings: KX1018
Excerpt: as §1, §2

[6] = test system: Klebsiella pneumoniae KP1004 (KPC-2); experiment: Checkerboard assay, Compound 5 with biapenem; settings: KP1004
Excerpt: as §1, §2

[7] = test system: Klebsiella pneumoniae KP1082 (KPC-2, SHV-1); experiment: Checkerboard assay, Compound 5 with biapenem; settings: KP1082
Excerpt: as §1, §2

[8] = test system: Klebsiella pneumoniae KP1083 (KPC-3, SHV-1, TEM-1); experiment: Checkerboard assay, Compound 5 with biapenem; settings: KP1083
Excerpt: as §1, §2

[9] = test system: Klebsiella pneumoniae KP1084 (KPC-3, SHV-11, TEM-1); experiment: Checkerboard assay, Compound 5 with biapenem; settings: KP1084
Excerpt: as §1, §2

[10] = test system: Klebsiella pneumoniae KP1087 (KPC-2, CTX-M-15, SHV-11, TEM-1); experiment: Checkerboard assay, Compound 5 with biapenem; settings: KP1087
Excerpt: as §1, §2

[11] = test system: Escherichia coli (EC1061) NDM-1; experiment: Biapenem MIC at various concentrations of Compound 5; settings: EC1061 NDM-1
[12] = test system: Klebsiella pneumonia (KP1004) KPC-2; experiment: as above; settings: KP1004 KPC-2
[13] = test system: bacterial strains that expressed the beta-lactamase, KPC-2 alone or in combination with NDM-1; experiment: Biapenem MIC at various concentrations of Compound 5 (summary)
[14] = test system: E. coli EC1061 (NDM-1 CMY-6); experiment: Aztreonam/Tigemonam MIC at various concentrations of BLI; settings: EC1061
Description: MIC values for each bacterial strain were measured for each antimicrobial compound at various concentrations of each BLI. […]

[15] = test system: K. pneumoniae KP1081 (NDM-1, CMY-6, SHV-11, CTX-M-15, TEM-1); experiment: as above; settings: KP1081
Description: (§3) MIC values for each bacterial strain were measured for each antimicrobial compound at various concentrations of each BLI.

[16] = test system: bacterial strains that expressed the beta-lactamase, NDM-1 and CMY-6; experiment: Aztreonam/Tigemonam MIC at various concentrations of BLI (summary)
Description: as §3

## O=C(O)C[C@@H]1CC[C@H](NC(=O)Cc2cccs2)B(O)O1 [Compound 5, 2-((3R,6S)-2-hydroxy-3-(2-(thiophen-2-yl)acetamido)-1,2-oxaborinan-6-yl)acetic acid]
[1]; Compound 5 0.31 mg/L
  Biapenem MIC: Y (Y = MIC of 0.5 mg/L to 4 mg/L.)
[1]; Compound 5 0.625 mg/L
  Biapenem MIC: Y (Y = MIC of 0.5 mg/L to 4 mg/L.)
[1]; Compound 5 5 mg/L
  Biapenem MIC: X (X = MIC of less than 0.5 mg/L.)
[1]; Compound 5 10 mg/L
  Biapenem MIC: X (X = MIC of less than 0.5 mg/L.)
[2]; Compound 5 0.31 mg/L
  Biapenem MIC: X (X = MIC of less than 0.5 mg/L.)
[2]; Compound 5 0.625 mg/L
  Biapenem MIC: X (X = MIC of less than 0.5 mg/L.)
[2]; Compound 5 5 mg/L
  Biapenem MIC: X (X = MIC of less than 0.5 mg/L.)
[2]; Compound 5 10 mg/L
  Biapenem MIC: X (X = MIC of less than 0.5 mg/L.)
[2]; Compound 5 […]
  Biapenem MIC: X (X = MIC of less than 0.5 mg/L.)
[3]; Compound 5 0.31 mg/L
  Biapenem MIC: X (X = MIC of less than 0.5 mg/L.)
[3]; Compound 5 0.625 mg/L
  Biapenem MIC: X (X = MIC of less than 0.5 mg/L.)
[3]; Compound 5 5 mg/L
  Biapenem MIC: X (X = MIC of less than 0.5 mg/L.)
[3]; Compound 5 […]
  Biapenem MIC: X (X = MIC of less than 0.5 mg/L.)
[4]; Compound 5 0.31 mg/L
  Biapenem MIC: Y (Y = MIC of 0.5 mg/L to 4 mg/L.)
[4]; Compound 5 0.625 mg/L
  Biapenem MIC: X (X = MIC of less than 0.5 mg/L.)
[4]; Compound 5 5 mg/L
  Biapenem MIC: X (X = MIC of less than 0.5 mg/L.)
[4]; Compound 5 10 mg/L
  Biapenem MIC: X (X = MIC of less than 0.5 mg/L.)
[5]; Compound 5 0.31 mg/L
  Biapenem MIC: X (X = MIC of less than 0.5 mg/L.)
[5]; Compound 5 0.625 mg/L
  Biapenem MIC: X (X = MIC of less than 0.5 mg/L.)
[5]; Compound 5 5 mg/L
  Biapenem MIC: NG (NG = No Growth.)
[5]; Compound 5 10 mg/L
  Biapenem MIC: NG (NG = No Growth.)
[5]; Compound 5 […]
  Biapenem MIC: X (X = MIC of less than 0.5 mg/L.)
[6]; Compound 5 0.31 mg/L
  Biapenem MIC: X (X = MIC of less than 0.5 mg/L.)
[6]; Compound 5 0.625 mg/L
  Biapenem MIC: X (X = MIC of less than 0.5 mg/L.)
[6]; Compound 5 5 mg/L
  Biapenem MIC: X (X = MIC of less than 0.5 mg/L.)
[6]; Compound 5 10 mg/L
  Biapenem MIC: X (X = MIC of less than 0.5 mg/L.)
[6]; Compound 5 […]
  Biapenem MIC: X (X = MIC of less than 0.5 mg/L.)
[7]; Compound 5 0.31 mg/L
  Biapenem MIC: X (X = MIC of less than 0.5 mg/L.)
[7]; Compound 5 0.625 mg/L
  Biapenem MIC: X (X = MIC of less than 0.5 mg/L.)
[7]; Compound 5 5 mg/L
  Biapenem MIC: X (X = MIC of less than 0.5 mg/L.)
[7]; Compound 5 10 mg/L
  Biapenem MIC: X (X = MIC of less than 0.5 mg/L.)
[7]; Compound 5 […]
  Biapenem MIC: X (X = MIC of less than 0.5 mg/L.)
[8]; Compound 5 0.31 mg/L
  Biapenem MIC: X (X = MIC of less than 0.5 mg/L.)
[8]; Compound 5 0.625 mg/L
  Biapenem MIC: X (X = MIC of less than 0.5 mg/L.)
[8]; Compound 5 5 mg/L
  Biapenem MIC: X (X = MIC of less than 0.5 mg/L.)
[9]; Compound 5 0.31 mg/L
  Biapenem MIC: Z (Z = MIC of greater than 4 mg/L.)
[9]; Compound 5 0.625 mg/L
  Biapenem MIC: Z (Z = MIC of greater than 4 mg/L.)
[9]; Compound 5 5 mg/L
  Biapenem MIC: X (X = MIC of less than 0.5 mg/L.)
[9]; Compound 5 10 mg/L
  Biapenem MIC: X (X = MIC of less than 0.5 mg/L.)
[10]; Compound 5 0.31 mg/L
  Biapenem MIC: Z (Z = MIC of greater than 4 mg/L.)
[10]; Compound 5 0.625 mg/L
  Biapenem MIC: Z (Z = MIC of greater than 4 mg/L.)
[10]; Compound 5 5 mg/L
  Biapenem MIC: X (X = MIC of less than 0.5 mg/L.)
[11]; Compound 5 0.31 μg/ml
  Biapenem MIC: 0.13 µg/mL
[11]; Compound 5 0.63 μg/ml
  Biapenem MIC: 0.13 µg/mL
[11]; Compound 5 5 μg/ml
  Biapenem MIC: 0.125 µg/mL
[11]; Compound 5 10 μg/ml
  Biapenem MIC: 0.06 µg/mL
[11]; Compound 5 20 μg/ml
  Biapenem MIC: 0.06 µg/mL
[12]; Compound 5 0.31 μg/ml
  Biapenem MIC: 0.5 µg/mL
[12]; Compound 5 0.63 μg/ml
  Biapenem MIC: 0.25 µg/mL
[12]; Compound 5 5 μg/ml
  Biapenem MIC: 0.06 µg/mL
[12]; Compound 5 10 μg/ml
  Biapenem MIC (μg/ml): ≦0.03 μg/ml
[12]; Compound 5 20 μg/ml
  Biapenem MIC (μg/ml): ≦0.03 μg/ml
[13]
  effect on Biapenem MIC: decreased the Biapenem MIC
[14]; Compound 5 0.31 μg/ml
  Aztreonam MIC (μg/ml) in the presence of BLI: 4 µg/mL
[14]; Compound 5 0.63 μg/ml
  Aztreonam MIC (μg/ml) in the presence of BLI: 4 µg/mL
[14]; Compound 5 5 μg/ml
  Aztreonam MIC (μg/ml) in the presence of BLI: 0.5 µg/mL
[14]; Compound 5 10 μg/ml
  Aztreonam MIC (μg/ml) in the presence of BLI: 0.5 µg/mL
[14]; Compound 5 20 μg/ml
  Aztreonam MIC (μg/ml) in the presence of BLI: 0.5 µg/mL
[14]; Compound 5 […]
  Aztreonam MIC (μg/ml) in the presence of BLI: 2 µg/mL
[15]; Compound 5 0.31 μg/ml
  Aztreonam MIC (μg/ml) in the presence of BLI: 256 µg/mL
[15]; Compound 5 0.63 μg/ml
  Aztreonam MIC (μg/ml) in the presence of BLI: 128 µg/mL
[15]; Compound 5 5 μg/ml
  Aztreonam MIC (μg/ml) in the presence of BLI: 8 µg/mL
[15]; Compound 5 10 μg/ml
  Aztreonam MIC (μg/ml) in the presence of BLI: 4 µg/mL
[15]; Compound 5 20 μg/ml
  Aztreonam MIC (μg/ml) in the presence of BLI: 2 µg/mL
[16]
  effect on Aztreonam or Tigemonam MICs: decreased the Aztreonam or Tigemonan MICs
